Measured values reported in patent publication US10722518B2, “Oxazine derivative for use in the treatment or prevention of cerebral amyloid angiopathy” (Novartis AG, priority 2016, dated 2020).

Assays:
[1] = tested on: Aβ40 levels in APOE4-TR mouse brain; experiment: Acute PK/PD dose-response study in APOE4-TR mice: Aβ40 in forebrain (MSD assay); format: in vivo; settings: for Mini AUEC (brain Aβ40): 4 h and 24 h; for Aβ40 reduction, range over doses: 3, 10 and 30 μmol/kg
Method: Male and female transgenic homozygous APOE4-TR (B6. 129P2-Apoe^tm3(APOE*4)Mae N8, Taconic, Model 001549, 3-5 months old, n=48) were obtained from Taconic.
Compound 1 was formulated as a suspension. Vehicle or compound was given by oral administration in a volume of 10 ml/kg once. Vehicle: 0.1% Tween80 in 0.5% Methylcellulose in water. […]
(§1) Frozen mouse forebrains were weighed and homogenized in 9 volumes (w/v) of ice-cold TBS-Complete (20 mM Tris-HCl pH 7.4, 137 mM NaCl, 1× Complete [Protease Inhibitor Cocktail Tablets: 1 836 145, Roche Diagnostics GmbH, Penzberg, Germany]) by sonication (90% duty cycle, output control 5, 40-55 pulses, [Sonifier 450, Branson]). After homogenization several 50 μl aliquots were prepared for analysis and were stored at −80° C.
Endogenous Aβ40 in mice was determined with the Meso Scale Discovery (MSD) 96-well MULTI-ARRAY human/rodent (4G8) Aβ40 Ultrasensitive Assay (#K110FTE-3, Meso Scale Discovery, Gaithersburg, USA). The assay was performed according to the manufacturer's instructions except for the calibration curve and the sample preparations. TritonX-100 (TX-100) soluble Aβ40 was extracted from forebrain with 1% TX-100 using a 50 μl aliquot of each 1:10 forebrain homogenate, mixed with 50 μl 2% TX-100 in TBS complete (20 mM Tris-HCl pH 7.4, 137 mM NaCl, 1× Complete [Protease Inhibitor Cocktail Tablets: 1 836 145, Roche Diagnostics GmbH, Penzberg Germany]) to reach a final concentration of 1% TX-100 and a 1:20 forebrain dilution. The samples were incubated for 15 min on ice and vortexed every 5 min. The samples were ultra-centrifuged (100000×g, 4° C., 15 min) and 50 μl of the clear supernatants were transferred to fresh tubes. For the Aβ40 assay the supernatants were further diluted 1:5 in 3% Blocker A solution (from kit) to a final forebrain dilution of 1:100 and applied to the plate.
(§2) The calibration curve was prepared in a corresponding dilution of 1% Blocker A solution spiked with synthetic Aβ1-40 peptide (1.56-100 pg/ml) except for non-transgenic mouse brain samples: In this case, the calibration curve was prepared in a correspondingly diluted APP knockout mouse forebrain spiked with synthetic Aβ1-40 peptide (1.56-100 pg/ml). For all samples and standards 25 μl were applied per well. For each determination duplicate wells were done. The mean values from the duplicate wells were used for calculations.

Aβ40 in CSF = experiment: 3-month dose-ranging study: Aβ40 in CSF; format: in vivo; settings: first-in-human and 3-month studies
Excerpt: This study is listed in ClinicalTrials.gov under the NCT02576639 Identifier code.
The primary purpose of this study was to expand on previous safety and tolerability data obtained over 2-week and 4-week duration in the first in human study and thereby allow initiation of future long-term efficacy trials in subjects at risk of AD and CAA. In addition, data relevant for Pharmacokinetic/Pharmacodynamic modeling was obtained in order to support dose selection decisions for future efficacy studies.
The extent of Aβ lowering was stable over time with PD steady-state being reached after approximately 2-3 weeks.
In the completed first-in-human and 3-month dose-ranging safety and tolerability clinical studies described in Examples 3 and 4, Aβ concentrations in CSF were obtained by means of lumbar punctures before the first dose (baseline) and respectively after 2 weeks and 3 months of multiple dosing. ApoE4 genotype also was obtained in the subjects who consented. The percent change from baseline in Aβ40 and Aβ42 concentrations was calculated in subjects who took the study treatment and had no major protocol deviation with potential impact on the evaluation of the pharmacodynamic effect. Tables 13 to 16 below provide summary statistics of the percent change from baseline by treatment group and ApoE genotype (E4 heterozygotes versus E4 non-carriers). […]

Aβ40 = experiment: Chronic treatment of APP23 mice: Triton TX-100 soluble Aβ40 in brain; format: in vivo, mouse
Method: as §1
Human Aβ40 and 42 in mice was determined with the Meso Scale Discovery (MSD) 96-well MULTI-ARRAY human/rodent (6E10) Aβ40/42 Assay (Meso Scale Discovery, Rockville, Md., USA) as described in [RD-2010-00284]. The assay was done according to the manufacturer's instructions except for the calibration curve and the sample preparations. TritonX-100 (TX-100) soluble Aβ40 and 42 was extracted from forebrain with 1% TX-100 using a 50 μl aliquot of each 1:10 forebrain homogenate, mixed with 50 μl 2% TX-100 in TBS complete (20 mM Tris-HCl pH 7.4, 137 mM NaCl, 1× Complete [Protease Inhibitor Cocktail Tablets: 1 836 145, Roche Diagnostics GmbH, Penzberg Germany]) to reach a final concentration of 1% TX-100 and a 1:20 forebrain dilution. The samples were incubated for 15 min on ice and vortexed every 5 min. The samples were ultra-centrifuged (100000×g, 4° C., 15 min) and 50 μl of the clear supernatants were transferred to fresh tubes. The supernatants were further diluted 1:5 in 3% Blocker A solution (from kit) to a final forebrain dilution of 1:100 and applied to the plate.
as §2, with “calculations. The relative units for samples and standards were imported into SOFTmax PRO 4.0 for calculation of standard curves and quantification of samples.” for “calculations.”
Brain homogenates were extracted with 1% Triton X-100 in buffer and the resulting supernatant was considered to represent soluble forms of APP metabolites. In addition to Aβ40 and 42, we determined the N-terminal APP fragments sAPPα (direct cleavage product of α-secretase) and sAPPβ (Swe) (direct product of BACE1 cleavage). […] Since no change in the APP expression and Aβ generation is known to happen during this age, it is assumed that the increased values in the vehicle group (18-20 mo old) arise from “leakage” out of the Aβ deposits (which increase several fold, see below).

Aβ42 = experiment: Chronic treatment of APP23 mice: Triton TX-100 soluble Aβ42 in brain; format: in vivo, mouse
Method: as §1
Human Aβ40 and 42 in mice was determined with the Meso Scale Discovery (MSD) 96-well MULTI-ARRAY human/rodent (6E10) Aβ40/42 Assay (Meso Scale Discovery, Rockville, Md., USA) as described in [RD-2010-00284]. The assay was done according to the manufacturer's instructions except for the calibration curve and the sample preparations. […]
The calibration curve was prepared in a corresponding dilution of 1% Blocker A solution spiked with synthetic Aβ1-40 peptide (1.56-100 pg/ml) except for non-transgenic mouse brain samples: In this case, the calibration curve was prepared in a correspondingly diluted APP knockout mouse forebrain spiked with synthetic Aβ1-40 peptide (1.56-100 pg/ml). […] The relative units for samples and standards were imported into SOFTmax PRO 4.0 for calculation of standard curves and quantification of samples. […]

In the case of `C[C@@]1(c2nc(NC(=O)c3ncc(C(F)(F)F)cc3Cl)ccc2F)CO[C@@](C)(C(F)(F)F)C(N)=N1` [Compound 1, N-(6-((3R,6R)-5-amino-3,6-dimethyl-6-(trifluoromethyl)-3,6-dihydro-2H-1,4-oxazin-3-yl)-5-fluoropyridin-2-yl)-3-chloro-5-(trifluoromethyl)picolinamide], the “% reduction vs vehicle (brain Aβ40)” value ([1]; 3 μmol/kg acute, 4 h) is reported as 43%, the “Average Aβ40 brain ± SD” value ([1]; 3 μmol/kg acute, 4 h) is reported as 0.114 ± 0.024 pmol/g and the “Mini AUEC (brain Aβ40)” value ([1]; 3 μmol/kg acute) is reported as 32%. The “% reduction vs vehicle (brain Aβ40)” value ([1]; 3 μmol/kg acute, 24 h) was 20%, the “Average Aβ40 brain ± SD” value ([1]; 3 μmol/kg acute, 24 h) was 0.160 ± 0.033 pmol/g and the “% reduction vs vehicle (brain Aβ40)” value ([1]; 10 μmol/kg acute, 4 h) was 63%. The “Average Aβ40 brain ± SD” value ([1]; 10 μmol/kg acute, 4 h) was 0.074 ± 0.014 pmol/g, the “Mini AUEC (brain Aβ40)” value ([1]; 10 μmol/kg acute) was 47% and the “% reduction vs vehicle (brain Aβ40)” value ([1]; 10 μmol/kg acute, 24 h) was 31%. The “Average Aβ40 brain ± SD” value ([1]; 10 μmol/kg acute, 24 h) was 0.139 ± 0.041 pmol/g, the “% reduction vs vehicle (brain Aβ40)” value ([1]; 30 μmol/kg acute, 4 h) was 77% and the “Average Aβ40 brain ± SD” value ([1]; 30 μmol/kg acute, 4 h) was 0.046 ± 0.006 pmol/g. For the same molecule, the “Mini AUEC (brain Aβ40)” value ([1]; 30 μmol/kg acute) was 72%, the “% reduction vs vehicle (brain Aβ40)” value ([1]; 30 μmol/kg acute, 24 h) was 66% and the “Average Aβ40 brain ± SD” value ([1]; 30 μmol/kg acute, 24 h) was 0.068 ± 0.021 pmol/g. The “Aβ40 reduction, range over doses” value ([1]; 4 h) was 43-77%, the “Aβ40 reduction, range over doses” value ([1]; 24 h) was 20-66% and the Emax ([1]; Mus musculus, 30 μmol/kg acute, read-out: maximal effect on Aβ reduction in the brain) was greater than 70%. The “CSF Aβ40 and Aβ42 response to treatment, ApoE4 carriers vs non-carriers” value (Aβ40 in CSF) was “no difference”, the “Aβ40 change vs vehicle (TX-100 soluble)” value (Aβ40; 0.03 g/kg vs vehicle) was −4.6% and the “Aβ40 change vs vehicle (TX-100 soluble)” value (Aβ40; 0.3 g/kg vs vehicle) was −43.7%. The “treatment effects on soluble Aβ species from brain tissue and Aβ40 in CSF” value (Aβ40; high Compound 1 dose) was −43.7 to −77%, the “treatment effects on soluble Aβ species from brain tissue and Aβ40 in CSF” value (Aβ40; low Compound 1 dose) was −4.6 to −20% and the “Aβ42 change vs vehicle (TX-100 soluble)” value (Aβ42; 0.03 g/kg vs vehicle) was −20.1%. For the same molecule, the “Aβ42 change vs vehicle (TX-100 soluble)” value (Aβ42; 0.3 g/kg vs vehicle) was −77.3%.
